In patent US5928860A, “Process for determining the tolerance, or toxicity of gaseous, liquid and/or viscous substances for the human or animal organism” (priority 1997, dated 1999):

Assays:
[1] = test system: explants of neonatal rabbit kidneys; type: cell-based
Description: An interactive tissue culture system was established for testing of toxicity. The culture system should provide information on whether the action of the substance perfluorophenathrene which changes the vessels can be established in vitro. Explants of neonatal rabbit kidneys were chosen as the test tissue. Antibodies for detection of vessels in the rabbit tissues are available in laboratory. In addition, the vascular system in this tissue has an extraordinarily high degree of spacial order. The preservation of the structure of the vascular system after application of the test substance was the parameter for assessment of the toxic effect in this test.
Tissue preparation: One to three day old rabbits were sacrificed by cervical dislocation. Organ explants were prepared immediately after removal of the kidneys.
The kidneys of neonatal rabbits are not yet completely developed. In the outermost region of the organ directly under the organ capsule, all nephron developments stages are found in addition to the embryonal tissue. Microsurgical organ explants were prepared from this region. To do this the kidneys were cut in half lengthwise. With fine tweezers the thin organ capsule was removed. With the organ capsule, the renal tissue still in development was detached. Proteases were not used in this preparation method, i.e. the organ-typical extracellular matrix and the intercellular connections remained intact. The organ explants were then stretched onto the retaining ring system.
Culture of the kidney explants: By using a retaining ring system it was possible to use tissue explants which had been […] for the tests. The tissue fragment was prepared in the corresponding size and fixed in the retaining ring. Proteolytic disintegration of the tissue, as can be necessary for culture in the conventional culture dish applications, was not carried out. The tissue fragment stretched onto the retaining ring was brought into contact with the tissue top or bottom with the test substance. The tissue top was defined as the side covered by the organ capsule. The tissue bottom was the tissue side exposed by the preparation. The tissue explants prepared in this way were cultivated with continuous throughflow of the medium. Use of perfusion culture technique in this case enabled complete abandonment of additives of fetal calf serum, adult serum or tissue extracts. The medium consists of a commercially available basic medium (Iscove's Modified Dulbecco's Medium, IMDM) to which the hormones aldosterone (10^-7 M) and 1.25 dihydroxyvitamin D3 (10^-9 M) have been added. In the presence of these hormones the structure of the renal tissue is completely preserved. Necroses were not observed even after culture times of more than 10 days.
For the perfusion culture, stretched explant 5 (organ samples) were inserted into the gradient chamber so that one upper and one lower compartment 6 or 7 are formed which are separated from one another by tissue 5. Upper compartment 6 was filled with the given test substance and no flow takes place through it in the experiment since the test substance was of viscous consistency. Throughflow of the test substance however would be possible in the application of liquid or gaseous substances.
Lower compartment 7 was filled with nutrient solution which was continuously pumped through the chamber compartment. Storage bottle 13 of the medium was connected via a hose connection 11 to the inlet 8 of lower chamber 7. Chamber outflow 9 was connected to the waste bottle. Storage bottle 13 was kept at 4° C. during the entire culture time. Supply hose 11 was inserted into 12 which ensured constant flushing of chamber with medium at 1 ml/h. […] Fundamentally other flow rates are possible. […]

[2] = test system: tumor cells
Description: In this example, two of these replacements (the substances perfluorophenathrene and perfluorodecaline) were studied. The substances have been tested in a cell culture system.
Cell culture systems are outstandingly suited for detection of acute toxic effects. They allow prompt testing of the direct toxic effect. If the toxicity of a substance is however based on cellular interactions, other systems must be used for analysis.

[3] = test system: rabbit eye; test: test of vitreous body replacements in the rabbit eye (animal test)
[4] = test system: rabbit eye; conditions: in vivo

| SMILES | Expression of EC 1 antigen [1] | Tissue structure [1] | Vascular structure [1] | preservation of the vascular network / vascular system in renal explants [1] | toxic effects in cell culture [2] | tolerance in animal test [3] | expression of the EC 1 antigen / detection of endothelial cells [1] | damage to the retina or eye [4] |
| --- | --- | --- | --- | --- | --- | --- | --- | --- |
| FC1(F)C(F)(F)C(F)(F)C2(F)C(F)(F)C(F)(F)C(F)(F)C(F)(F)C2(F)C1(F)F (stereo not shown) [Perfluorodecaline, perfluorodecaline] | + | + | + | excellent preservation of the vascular system | no indications of toxic effects | good tolerance |  |  |
| FC1(F)C(F)(F)C(F)(F)C2(F)C(F)(C1(F)F)C(F)(F)C(F)(F)C1(F)C(F)(F)C(F)(F)C(F)(F)C(F)(F)C12F (stereo not shown) [Perfluorophenathrene, perfluorophenathrene] | + |  | - |  |  |  | expression of the EC 1 antigen was not influenced | major damage to the eye |
